Measurements reported in patent publication US10010560B2, “Small molecule HSP70 inhibitors” (THE TRUSTEES OF THE UNIVERSITY OF PENNSYLVANIA, priority 2014, dated 2018).

How the values were obtained:
[1] = test system: non-transformed cells (fibroblasts, primary melanocytes); assay: Viability of non-transformed cells; format: cell-based, human; details: at concentrations that inhibit tumor cell viability
Procedure: FIGS. 2A-2D illustrate the cytotoxicity of PET-16 to human tumor cells and its inhibition on E. coli growth. FIG. 2A is a line graph with data obtained from MTT assays of human melanoma cell lines treated with the indicated concentrations of PES or PET-16 for 72 h. The corresponding cell survival is normalized to vehicle (DMSO) treatment. Average and standard deviation (s.d.) from three independent experiments are shown. FIG. 2B are bar graphs of human melanoma (A875) cells and nontransformed human (IMR90) fibroblasts that were treated with DMSO, 10 μM PES or 10 μM PET-16 for 24 h. […] FIG. 2C is a line graph illustrating the growth of E. coli DH5α treated with different concentrations of PES or PET-16 for 6 h at 43° C. Error bars represent the s.d. of four independent experiments. FIG. 2D is a bar graph illustrating the growth of E. coli DH5α treated with DMSO, 30 μM PET-16 or 30 μM TPP for 6 h at 43° C. Error bars represent the s.d. of four independent experiments.

STAT3 and STAT1 = assay: IL-6 induced STAT3 and STAT1 phosphorylation in melanoma cell lines; format: cell-based; details: cells pre-treated with compound
Description: (§1) FIGS. 4A-4L illustrate that PET-16 impairs proteostasis. […] There is a general absence of obvious nuclei in PET-16 treated tumor cells. […] FIGS. 4D and 4E are gels of whole-cell extracts (WCE) prepared from human melanoma A875 (D) or 451 Lu (E) cells treated with DMSO, PES or PET-16 that were immunoprecipitated using an anti-HSP70 antibody. The excised band of about 70 kDa shown in the Coomassie gel is HSP70, as confirmed by liquid chromatography—tandem mass spectrometry analysis. FIGS. 4F-4I are western blots of cell lines were treated with DMSO, PES or PET-16 for 24 h and immunoblotted for the indicated proteins. FIG. 4J are western blots of indicated melanomas pretreated with DMSO, PES or PET-16, followed by treatment with IL-6. Cell extracts were immunoblotted for the proteins indicated. Inhibition of IL-6 induced STAT3 and STAT1 phosphorylation by PET-16. FIG. 4K is a western blot analysis indicating altered processing of cathepsin L from the larger precursor form to the smaller mature form in the indicated cells following PET-16 treatment for 24 h. FIG. 4L is a western blot of the human melanoma 451 Lu cells treated with DMSO, PES or PET-16 for 24 h. Cells were harvested in 1% NP40-containing lysis buffer, fractionated into detergent-soluble and detergent-insoluble preparations, and assayed by western blot for ubiquitin. […]

cathepsin L = assay: Western blot of cathepsin L processing; format: cell-based; details: 24 h treatment
Description: as §1

ubiquitin = assay: Western blot for ubiquitin in detergent fractions; format: cell-based, human; details: 451 Lu cells, 24 h, detergent insoluble fraction
Description: as §1

[2] = test system: mouse melanoma cell line B16; assay: Pulmonary metastatic model, B16 melanoma; format: in vivo; details: C57BL/6 mice injected with B16
Procedure: FIGS. 7A-7C illustrate that PET-16 impairs metastasis in a mouse model of melanoma. A well-recognized pulmonary metastatic model was utilized in which immunocompetent, wild-type C57BL/6 mice were injected with the highly metastatic mouse melanoma cell line B16, as indicated. […] FIG. 7A is a summary of the steps entailed in the model. FIG. 7B are photographs of biopsied lungs obtained from the infected mice. FIG. 7C provides a graphical representation of counts of metastatic colonies intermediate gray square represents 0 colonies, lightest gray square represents 1-10 colonies and darkest gray square represents >10 colonies) seen in lungs of vehicle-, PES-Cl- or PET-16-treated mice.
The inhibitory effect of PET-16 on metastasis was tested in vivo, a well-recognized pulmonary metastatic model was utilized in which immunocompetent, wild-type C57BL/6 mice were injected with the highly metastatic mouse melanoma cell line B16 (FIG. 7).

SMILES: C(#C[P+](c1ccccc1)(c1ccccc1)c1ccccc1)c1ccccc1.[Br-] [PET-16, triphenyl(phenylethynyl)phosphonium bromide]
- effect on viability of non-transformed cells [1]: little effect
- IL-6 mediated phosphorylation of STAT3 and STAT1 (STAT3 and STAT1): inhibited
- cathepsin L processing (cathepsin L): accumulation of the precursor procathepsin L and a markedly reduced abundance of the smaller, mature form
- ubiquitinated polypeptides (ubiquitin): accumulation
- lung metastases [2]: significantly reduced
